Results reported in US9770445B2, “Sulfoximine substituted 5-fluoro-N-(pyridin-2-yl)pyridin-2-amine derivatives and their use as CDK9 kinase inhibitors” (BAYER PHARMA AKTIENGESELLSCHAFT, priority 2013, dated 2017).

Target: T1, CDK2/CycE (Homo sapiens, UniProt P24941)
T1 construct: GST; purchased ProQinase GmbH (Freiburg, Germany); host or cells: insect cells (Sf9)
Experiment: CDK2/CycE kinase assay (Method 2, TR-FRET)
Type: biochemical
Details: Method 2, 10 μM ATP
Description: 2. CDK2/CycE Kinase Assay:
CDK2/CycE-inhibitory activity of compounds of the present invention was quantified employing the CDK2/CycE TR-FRET assay as described in the following paragraphs:
Recombinant fusion proteins of GST and human CDK2 and of GST and human CycE, expressed in insect cells (Sf9) and purified by Glutathion-Sepharose affinity chromatography, were purchased from ProQinase GmbH (Freiburg, Germany). As substrate for the kinase reaction biotinylated peptide biotin-Ttds-YISPLKSPYKISEG (C-terminus in amid form) was used which can be purchased e.g. form the company JERINI Peptide Technologies (Berlin, Germany).
For the assay 50 nl of a 100 fold concentrated solution of the test compound in DMSO was pipetted into a black low volume 384 well microtiter plate (Greiner Bio-One, Frickenhausen, Germany), 2 μl of a solution of CDK2/CycE in aqueous assay buffer [50 mM Tris/HCl pH 8.0, 10 mM MgCl2, 1.0 mM dithiothreitol, 0.1 mM sodium ortho-vanadate, 0.01% (v/v) Nonidet-P40 (Sigma)] were added and the mixture was incubated for 15 min at 22° C. to allow pre-binding of the test compounds to the enzyme before the start of the kinase reaction. Then the kinase reaction was started by the addition of 3 μl of a solution of adenosine-tri-phosphate (ATP, 16.7 μM=>final conc. in the 5 μl assay volume is 10 μM) and substrate (1.25 μM=>final conc. in the 5 μl assay volume is 0.75 μM) in assay buffer and the resulting mixture was incubated for a reaction time of 25 min at 22° C. The concentration of CDK2/CycE was adjusted depending of the activity of the enzyme lot and was chosen appropriate to have the assay in the linear range, typical concentrations were in the range of 130 ng/mL. The reaction was stopped by the addition of 5 μl of a solution of TR-FRET detection reagents (0.2 μM streptavidine-XL665 [Cisbio Bioassays, Codolet, France] and 1 nM anti-RB(pSer807/pSer811)-antibody from BD Pharmingen [#558389] and 1.2 nM LANCE EU-W1024 labeled anti-mouse IgG antibody [Perkin-Elmer, product no. AD0077]) in an aqueous EDTA-solution (100 mM EDTA, 0.2% (w/v) bovine serum albumin in 100 mM HEPES/NaOH pH 7.0).
The resulting mixture was incubated 1 h at 22° C. to allow the formation of complex between the phosphorylated biotinylated peptide and the detection reagents. Subsequently the amount of phosphorylated substrate was evaluated by measurement of the resonance energy transfer from the Eu-chelate to the streptavidine-XL. Therefore, the fluorescence emissions at 620 nm and 665 nm after excitation at 350 nm was measured in a TR-FRET reader, e.g. a Rubystar (BMG Labtechnologies, Offenburg, Germany) or a Viewlux (Perkin-Elmer). The ratio of the emissions at 665 nm and at […] was taken as the measure for the amount of phosphorylated substrate. The data were normalised (enzyme reaction without inhibitor=0% inhibition, all other assay components but no enzyme=100% inhibition).

Row | SMILES | IC50
1 | CS(=N)(=O)Cc1ccnc(Nc2cc(-c3ccc(F)c4ccoc34)c(F)cn2)c1 (single isomer, unassigned; (+)) [Example 14, (+)-5-Fluoro-4-(4-fluoro-1-benzofuran-7-yl)-N-{4-[(S-methylsulfonimidoyl)methyl]pyridin-2-yl}pyridin-2-amine] | 142 nM
2 | CS(=N)(=O)Cc1ccnc(Nc2cc(-c3ccc(F)c4ccoc34)c(F)cn2)c1 (single isomer, unassigned; (-)) [Example 15, (−)-5-Fluoro-4-(4-fluoro-1-benzofuran-7-yl)-N-{4-[(S-methylsulfonimidoyl)methyl]pyridin-2-yl}pyridin-2-amine] | 121 nM
